Holding throughout (format): functional
The test system of test [1] is MDA-MB-468. Description: Cytotoxicity against human MDA-MB-468 cells assessed as cellular growth at 10 uM by SRB assay. Background: Sulforhodamine B stains cellular protein and so reports cell mass.
For test [2], the system named is CCRF-CEM. Description: Cytotoxicity against human CCRF-CEM cells assessed as cellular growth at 10 uM by SRB assay.
The test system of test [3] is SNB-19. The experiment in a line: Cytotoxicity against human SNB19 cells assessed as cellular growth at 10 uM by SRB assay.
The test system of test [4] is A549. Description: Cytotoxicity against human A549 cells assessed as cellular growth at 10 uM by SRB assay.
In test [5] the test system is RXF 393. The experiment in a line: Cytotoxicity against human RXF393 cells assessed as cellular growth at 10 uM by SRB assay.
Test [6] deals with KM12. Description: Cytotoxicity against human KM12 cells assessed as cellular growth at 10 uM by SRB assay.
Test [7] is described as follows: Cytotoxicity against human NCI-ADR-RES cells assessed as cellular growth at 10 uM by SRB assay.
Test [8] relates to SNB-75. Description: Cytotoxicity against human SNB75 cells assessed as cellular growth at 10 uM by SRB assay.
Test [9] deals with IGROV-1. The experiment in a line: Cytotoxicity against human IGROV1 cells assessed as cellular growth at 10 uM by SRB assay.
Test [10] concerns A498. The experiment in a line: Cytotoxicity against human A498 cells assessed as cellular growth at 10 uM by SRB assay.
The test system of test [11] is OVCAR-8. Description: Cytotoxicity against human OVCAR8 cells assessed as cellular growth at 10 uM by SRB assay.
Test [12] relates to U-251. Description: Cytotoxicity against human U251 cells assessed as cellular growth at 10 uM by SRB assay.
The test system of test [13] is COLO 205. Description: Cytotoxicity against human COLO205 cells assessed as cellular growth at 10 uM by SRB assay.
Test [14] deals with NCI-H460. Description: Cytotoxicity against human NCI-H460 cells assessed as cellular growth at 10 uM by SRB assay.
The subject of test [15] is EKVX. The experiment in a line: Cytotoxicity against human EKVX cells assessed as cellular growth at 10 uM by SRB assay.
For test [16], the system named is TK-10. Description: Cytotoxicity against human TK10 cells assessed as cellular growth at 10 uM by SRB assay.
Test [17] deals with SK-MEL-2. Description: Cytotoxicity against human SK-MEL-2 cells assessed as cellular growth at 10 uM by SRB assay.
Test [18] concerns SK-OV-3. The experiment in a line: Cytotoxicity against human SKOV3 cells assessed as cellular growth at 10 uM by SRB assay.
For test [19], the system named is UACC-257. Description: Cytotoxicity against human UACC257 cells assessed as cellular growth at 10 uM by SRB assay.
In test [20] the test system is UO-31. The experiment in a line: Cytotoxicity against human UO31 cells assessed as cellular growth at 10 uM by SRB assay.

For the molecule `Cc1ccccc1NC(=O)c1sc2nc3c(cc2c1N)C(=O)CCC3`, the Activity in test [1] is recorded as -4.56%; in test [2], 30.28%; in [3], 46.1%; in test [4], 37.59%; in test [5], -10.38%; in [6], 19.22%. In addition, the Activity was 22.58% in test [7]; 13.12% in test [8]; 77.05% in [9]; 31.28% in [10]; 78.59% in test [11]; 48.96% in test [12]. The Activity worked out at 6.12% in [13]; 15.33% in [14]; 87.53% in test [15]; 81.15% in test [16]; 58.56% in [17]; 22.08% in test [18]. Moreover, the figures for the Activity in test [19] and in test [20] were 60.99% and 77.51%, respectively.

For the molecule `Cc1ccc(S(=O)(=O)Oc2ccc(-c3cnc4ccccc4n3)cc2)cc1`, the Activity stood at 107.13% in [1]; 96.08% in [2]; 123.73% in test [3]; 95.53% in test [4]; 103.74% in test [5]; 105.85% in [6]. Also, the Activity is 101.39% in test [7]; 117.79% in test [8]; 119.02% in test [9]; 88.71% in test [10]; 96.94% in test [11]; 89.92% in test [12]. Also, the Activity came to 135.44% in test [13]; 97% in [14]; 98.5% in test [15]; 98.17% in test [16]; 127.78% in test [17]; 104.03% in test [18]. Besides, the Activity stood at 102.87% in test [19] and 109.58% in test [20].

Regarding `CC1(C)CC(=O)c2cc3c(N)c(C(=O)Nc4ccccc4Cl)sc3nc2C1`, the Activity in test [1] came out at 110.28%; in [2] it was 97.05%; in [3], 106.42%; in test [4], 102.64%; in [5], 117.18%; in [6] it was 117.4%. Moreover, the Activity in test [7] is on record as 115.33%; in [8] it was 118.5%; in test [9], 126.77%; in test [10], 71.33%; in test [11], 109.63%; in test [12], 102.37%. The Activity came to 125.06% in test [13]; 113.94% in test [14]; 108.8% in test [15]; 106.14% in test [16]; 111.24% in test [17]; 107.93% in test [18]. Besides, the Activity was 104.02% in test [19] and 117.05% in [20].

For `O=c1/c(=C/c2ccccc2)sc2nc(-c3ccc(Cl)cc3Cl)nn12`, the Activity in test [1] is 120.34%; in test [2], 105.93%; in [3], 110.52%; in test [4], 103.15%; in [5], 111.76%; in [6], 114.89%. The Activity in test [7] is reported as 111.31%; in [8], 80.26%; in test [9], 102.56%; in test [10] it was 108.54%; in test [11] it was 102.91%; in [12], 105.46%. The Activity is 123.34% in test [13]; 106.69% in [14]; 110.01% in test [15]; 98.86% in [16]; 117.96% in test [17]; 98.1% in test [18]. The Activity was 83.86% in [19] and 88.97% in [20].

Consider `O=C(Nc1ccc2oc(=O)ccc2c1)c1ccc(-c2ccc(Cl)c(Cl)c2)o1`, for which the Activity in test [1] was 97.57%; in test [2] it was 57.99%; in [3] it was 101.4%; in test [4], 50.07%; in test [5], 98.99%; in test [6], 73.78%. The Activity in test [7] turned out to be 78.15%; in test [8], 92.21%; in test [9], 106.69%; in [10], 101.16%; in test [11], 94.2%; in [12], 92.91%. For the same molecule, the Activity is 121.29% in [13]; 100.41% in test [14]; 94.26% in test [15]; 90.37% in test [16]; 102.15% in test [17]; 107.01% in [18]. Moreover, the Activity in test [19] is given as 97.36%; in test [20], 65.88%.

As to `CC1(C)CC(=O)c2cc3c(N)c(C(=O)Nc4ccc(Cl)cc4)sc3nc2C1`, the Activity stood at 109.5% in [1]; 97.21% in test [2]; 113.58% in test [3]; 97.61% in test [4]; 116.26% in test [5]; 116.67% in test [6]. Further, the Activity is 113.97% in test [7]; 113.88% in [8]; 110.85% in test [9]; 75.63% in test [10]; 110.67% in test [11]; 103.14% in test [12]. In addition, the Activity in [13] is on record as 116.82%; in [14], 108.61%; in test [15], 93.17%; in [16] it was 95.21%; in [17] it was 100.96%; in test [18] it was 106.15%. For the same molecule, the Activity in test [19] is recorded as 91.35%; in test [20], 108.83%.

For `Nc1c(C(=O)Nc2ccccc2)sc2nc3c(cc12)C(=O)CCC3`, the Activity in test [1] is given as 4.62%; in test [2], 16.76%; in [3], 36.05%; in [4], 19.69%; in [5] it was -9.9%; in test [6], 19.9%. The Activity is -6.39% in test [7]; 12.41% in test [8]; 36.43% in [9]; 37.32% in test [10]; 39.92% in test [11]; 25.69% in [12]. Besides, the Activity is -18.41% in [13]; 12.88% in test [14]; 84.59% in [15]; 63.62% in test [16]; 38.68% in [17]; 19.71% in test [18]. For the same molecule, the Activity in test [19] is reported as 52.83%; in test [20] it was 71.08%.

`COc1ccc2nc(NC(=O)c3ccc(F)cc3)sc2c1`: the Activity is reported as 102.55% in [1]; 91.13% in test [2]; 109.05% in [3]; 47.59% in [4]; 110.56% in test [5]; 93.29% in [6]. In addition, the Activity in test [7] stood at 89.25%; in [8], 109.5%; in [9], 98.94%; in test [10], 85.54%; in test [11], 94.61%; in [12] it was 98.75%. The Activity is reported as 115.29% in [13]; 19.56% in test [14]; 79.56% in [15]; 98.88% in test [16]; 143.55% in test [17]; 104.34% in test [18]. In addition, the Activity was found to be 97.45% in test [19] and 99.75% in test [20].

On to `N#Cc1ccc(NC(=O)c2sc3nc4c(cc3c2N)C(=O)CCC4)cc1`, for which the Activity in test [1] is listed as 97.58%; in [2], 99.79%; in [3], 101.84%; in test [4], 92.54%; in [5] it was 119.14%; in [6], 101.12%. In addition, the Activity in [7] is reported as 105.72%; in [8], 113.44%; in test [9], 113.1%; in test [10], 79.55%; in test [11] it was 104.55%; in test [12], 106.08%. The Activity in test [13] amounted to 108.98%; in [14], 85.91%; in test [15] it was 93.58%; in [16] it was 65.94%; in test [17] it was 83%; in test [18] it was 106.21%. The Activity was found to be 105.99% in [19] and 103.56% in [20].

For the molecule `c1ccc(-c2nc(-c3cccs3)no2)cc1`, the Activity in test [1] is 83.74%; in test [2], 97.84%; in test [3], 108.69%; in test [4], 106.51%; in [5], 122.84%; in test [6], 99.88%. Further, the Activity is 116.69% in [7]; 105.81% in [8]; 83.5% in test [9]; 96.9% in [10]; 105.37% in test [11]; 94.72% in [12]. The Activity stood at 114.24% in test [13]; 102.91% in test [14]; 102.25% in test [15]; 97.25% in test [16]; 103.18% in test [17]; 106.03% in test [18]. Also, the figures for the Activity in test [19] and in test [20] were 103.2% and 88.86%, respectively.

For the molecule `Clc1ccc(-c2nc(-c3cccs3)no2)c(Cl)c1`, the Activity is 8.37% in test [1]; 85.99% in [2]; 104.48% in [3]; 91.44% in test [4]; 107.35% in test [5]; 99.27% in [6]. Further, the Activity in test [7] is reported as 102.9%; in [8] it was 63.47%; in [9], 66.78%; in test [10], 110.86%; in test [11], 97.12%; in test [12], 90.09%. In addition, the Activity in [13] was determined as 106.21%; in test [14], 92.07%; in test [15], 72.63%; in test [16] it was 71.42%; in test [17], 122.72%; in [18], 93.87%. The Activity in test [19] amounted to 76.15%; in test [20] it was 70.88%.
